# Earlier results, collected in patent publication US20130030007A1, “Obesity Small Molecules” (AKRON MOLECULES GMBH, priority 2010, published 2013).
# Non-standard residues stand in square brackets, D forms with d. Residues, ends and D or L forms follow the SMILES beside them. No end group written: not given here. *: point of attachment. Sta = CC(C)C[C@H](N)[C@@H](O)CC(=O)O; Isovaleryl = CC(C)CC(=O)*; Cbz = O=C(OCc1ccccc1)*
# Test system: human ortholog of Drosophila obesity gene
# Parameters: key: O: Obesity - obesity pathway interaction; B: validated binding partner
# Conditions: cited from earlier work
row,Molecule,Type: Type of interaction
1,[NH2][Pt]1([NH2])[O]CC(=O)[O]1 [nedaplatin],O
2,c1cncnc1 [Miazine],B
3,CCCCC[C@H](O)/C=C/[C@@H]1[C@@H](C/C=C\CCCC(=O)O)[C@@H](O)C[C@H]1O [prostaglandin F2alpha],O
4,O=C(O)C(=O)O.[NH-][C@@H]1CCCC[C@H]1[NH-].[Pt+2] [oxaliplatin],O
5,CCCC(=O)O[C@@H]1[C@@H](C)[C@@]2(O)[C@@H](C=C(CO)C[C@]3(O)C(=O)C(C)=C[C@@H]23)[C@@H]2C(C)(C)[C@]12OC(=O)CCC [PDBU],O
6,CSC[C@H]1O[C@@H](n2cnc3c(N)ncnc32)[C@H](O)[C@@H]1O [MeSAdo],B
7,C[C@]1(O)CC[C@H]2[C@@H]3CCC4=CC(=O)CCC4=C3C=C[C@@]21C [Metribolone],B
8,NS(=O)(=O)c1ccc(Nc2nc(OCC3CCCCC3)c3[nH]cnc3n2)cc1 [NU6102],B
9,Nc1nc(OCC2CCCCC2)c2[nH]cnc2n1 [NU2058],B
10,COc1ccc2c(c1)C13CCCCC1C(C2)N(C)CC3 (stereo not drawn) [Methorphan],O
11,COc1ccc(C2=N[C@@H](c3ccc(Cl)cc3)[C@@H](c3ccc(Cl)cc3)N2C(=O)N2CCNC(=O)C2)c(OC(C)C)c1 (racemic) [nutlin 3],O
12,COc1ccc(-c2coc3cc(O)cc(O)c3c2=O)cc1 [olmelin],B
13,C[C@@H]1Cc2c(Cl)cc(C(=O)N[C@@H](Cc3ccccc3)C(=O)O)c(O)c2C(=O)O1 [ochratoxin A],O
14,CCCC(C)C1(CC)C(=O)NC(=O)NC1=O (stereo not drawn) [Mebumal],O
15,C[C@@H]1C[C@H]2O[C@@H]2/C=C\C=C\C(=O)Cc2cc(O)cc(O)c2C(=O)O1 [monocillin I],O
16,CCCC(C)(COC(N)=O)COC(N)=O [Meprobamate],O
17,CN[C@H](CC(=O)O)C(=O)O [NMDA],O
18,CC(=O)[C@@]1(O)CC[C@H]2[C@@H]3CCC4=CC(=O)CC[C@]4(C)[C@H]3CC[C@@]21C [Prodix],B

row,Molecule,Type: Type of interaction
1,CCCCC[C@H](O)/C=C/[C@H]1C=CC(=O)[C@@H]1CCCCCCC(=O)O [prostaglandin A1],O
2,O[C@]12C=C(c3nccc4c3[nH]c3ccccc34)[C@@H]3CCN(CCCC/C=C\CC1)C[C@@]31C[C@@H]3/C=C\CCCCN3[C@H]12 [manzamine A],O
3,CC(C)OC(=O)C(C)(C)Oc1ccc(C(=O)c2ccc(Cl)cc2)cc1 [Procetofen],O
4,CS(=O)(=O)c1cc(F)cc2c3c(n(Cc4ccc(Cl)cc4)c12)[C@@H](CC(=O)O)CC3 [MK-0524],B
5,CCN(CC)CCCCNc1ncc2cc(-c3cc(OC)cc(OC)c3)c(NC(=O)NC(C)(C)C)nc2n1 [PD 173074],B
6,CC(C)CC(=O)N[C@H](C(=O)N[C@H](C(=O)N[C@@H](CC(C)C)[C@@H](O)CC(=O)N[C@@H](C)C(=O)N[C@@H](CC(C)C)[C@@H](O)CC(=O)O)C(C)C)C(C)C [Pepstatin A] (Isovaleryl-VV[Sta]A[Sta]-OH),O
7,Oc1ccc2c3c1O[C@H]1c4[nH]c5c(c4C[C@@]4(O)[C@@H](C2)N(CC2CC2)CC[C@]314)C[C@@]1(O)[C@H]2Cc3ccc(O)c4c3[C@@]1(CCN2CC1CC1)[C@H]5O4 [Norbinaltorphimine],O
8,C[C@H](N[C@@H](CCc1ccccc1)C(=O)O)C(=O)N1[C@H](C(=O)O)C[C@@H]2CCC[C@@H]21 [ramiprilat],B
9,Nc1ccc(CCN2CN(c3ccccc3)C3(CCN(CCCC(=O)c4ccc(F)cc4)CC3)C2=O)cc1 [N-(4-aminophenethyl)spiroperidol],B
10,O=C1C=C2C(=CCOC2O)O1 (stereo not drawn) [Patulin],O
11,CO[C@H]1C[C@H](O[C@H]2CC[C@@]3(C)[C@H](CC[C@@H]4[C@@H]3CC[C@]3(C)[C@@H](C5=CC(=O)OC5)[C@@H](OC(C)=O)C[C@]43O)C2)O[C@@H](C)[C@@H]1O [oleandrin],B
12,O=C(O[C@H]1[C@@H]2OC(=O)c3cc(O)c(O)c(O)c3-c3c4cc(c(O)c3O)Oc3c(cc(O)c(O)c3O)C(=O)O[C@H]3C(O)O[C@@H]5COC(=O)c6cc(O)c(O)c(O)c6-c6c(cc(c(O)c6O)Oc6c(cc(O)c(O)c6O)C(=O)O[C@H]1C(O)O[C@@H]2COC4=O)C(=O)O[C@H]5[C@@H]3OC(=O)c1cc(O)c(O)c(O)c1)c1cc(O)c(O)c(O)c1 (stereo partly drawn) [oenothein B],B
13,CCCCC[C@H](O)/C=C/[C@@H]1[C@@H](C/C=C\CCCC(=O)O)[C@@H]2C[C@H]1OO2 [prostaglandin H2],O
14,CO[C@H]1CC[C@@H](O[C@H]2C[C@H]([C@]3(C)CC[C@]4(C[C@H](O)[C@@H](C)[C@@H]([C@@H](C)/C=C(\C)C(=O)[C@H](C)C[C@H](C)C(=O)O)O4)O3)O[C@]3(O[C@@H]([C@H]4O[C@@](O)(CO)[C@H](C)C[C@@H]4C)C[C@@H]3C)[C@@H]2C)O[C@@H]1C [nanchangmycin],O
15,O=[N+]([O-])c1ccc(-c2nc(-c3ccc(F)cc3)c(-c3ccncc3)[nH]2)cc1 [PD 169316],B
16,CO[C@H](C(=O)[C@@H](O)[C@@H](C)O)[C@@H]1Cc2cc3cc(O[C@H]4C[C@@H](O[C@H]5C[C@@H](O)[C@H](O)[C@@H](C)O5)[C@H](O)[C@@H](C)O4)c(C)c(O)c3c(O)c2C(=O)[C@H]1O[C@H]1C[C@@H](O[C@H]2C[C@@H](O[C@H]3C[C@](C)(O)[C@H](O)[C@@H](C)O3)[C@@H](O)[C@@H](C)O2)[C@H](O)[C@@H](C)O1 [mithramycin A],B
17,CC1CC(=O)NN=C1c1cc(-n2ccnc2)cs1 (stereo not drawn) [motapizone],O

# Same assay, conditions: interaction of the small molecule with the human ortholog(s) / Drosophila gene(s) listed in the same table line; cited from earlier work
row,Molecule,Type: Type of interaction
1,COc1ccc2nc(S(=O)(=O)Cc3ncc(C)c(OC)c3C)[nH]c2c1 [omeprazole sulfone],B
2,Pyrethrins,O
3,omalizumab,B
4,CC(=O)O[C@@]12C[C@@H](C)[C@@]3(O)[C@@H](C=C(CO)C[C@]4(O)C(=O)C(C)=C[C@@H]34)[C@@H]1C2(C)C [prostratin],O
5,CC12CC3CC(C)(C1)CC(N)(C3)C2 [Memantine],B
6,CO[C@H]1O[C@H](COS(=O)(=O)O)[C@@H](O[C@@H]2O[C@@H](C(=O)O)[C@@H](O[C@H]3O[C@H](COS(=O)(=O)O)[C@@H](O[C@@H]4O[C@H](C(=O)O)[C@@H](O[C@H]5O[C@H](COS(=O)(=O)O)[C@@H](O)[C@H](O)[C@H]5NS(=O)(=O)O)[C@H](O)[C@H]4O)[C@H](OS(=O)(=O)O)[C@H]3NS(=O)(=O)O)[C@H](O)[C@H]2OS(=O)(=O)O)[C@H](O)[C@H]1NS(=O)(=O)O [Org 31540],B
7,CNc1cc(OC)c(C(=O)NC2CCN(Cc3ccccc3)C2C)cc1Cl (stereo not drawn) [nemonapride],O
8,CN1CCN2c3ncccc3Cc3ccccc3C2C1 (stereo not drawn) [mirtazapine],B
9,COc1ccc(CCNCCCC(C#N)(c2ccc(OC)c(OC)c2)C(C)C)cc1OC (stereo not drawn) [norverapamil],O
10,Nc1ccc(C(=O)NCC(=O)O)cc1 [p-Aminohippuric Acid],B
11,O=C1NC(=O)C(Cc2ccc3cc(OCc4ccccc4F)ccc3c2)S1 (stereo not drawn) [netoglitazone],B
12,O=C1CCC[C@@H]2[C@H]3CCC[N+]4([O-])CCC[C@@H](CN12)[C@@H]34 (stereo partly drawn) [oxymatrine],B
13,CCN1C(=O)C=CC1=O [N-ethylmaleimide],O
14,NCC(=O)Nc1ccc(-n2nc(C(F)(F)F)cc2-c2ccc3c(ccc4ccccc43)c2)cc1 [OSU 03012],B
15,CO[C@@H]1C(=O)CC[C@]2(CO2)[C@@]1(O)[C@@]1(C)O[C@@H]1CC=C(C)C [ovalicin],B
16,O=C(OCC(COC(=O)c1cccnc1)(COC(=O)c1cccnc1)COC(=O)c1cccnc1)c1cccnc1 [Niceritrol],O

row,Molecule,Type: Type of interaction
1,COc1ccc(Cl)cc1C(=O)NCCc1ccc(S(=O)(=O)NC(=O)NC2CCCCC2)cc1 [Malix],B
2,OCCOCCN1CCN(C2=Nc3ccccc3Sc3ccccc32)CC1 [quetiapine],O
3,C[C@]12C=CC(=O)C=C1CC[C@@H]1[C@@H]2C(=O)C[C@@]2(C)[C@H]1CC[C@]2(O)C(=O)CO [Prednisone],O
4,O=C[C@@H]1CCCN1C(=O)[C@@H]1CCCN1C(=O)OCc1ccccc1 [N-benzyloxycarbonylprolyl-prolinal] (Cbz-Pro-Pro-aldehyde),O
5,CCC(c1ccccc1)c1c(O)c2ccccc2oc1=O (stereo not drawn) [Phenprocoumon],O
6,CC(=O)N[C@H]1/C(=N/OC(=O)Nc2ccccc2)O[C@H](CO)[C@@H](O)[C@@H]1O [Pugnac],B
7,N#Cc1cccc2sc(C(=O)NC(=N)N)cc12 [N-(4-cyano-benzo (b)thiophene-2-carbonyl)guanidine],O
8,"neuromedin C (GNHWAVGHLM; ends and bridges not checked; UniProt P07492 41-50, looked up)",O
9,CCN(CC)CC#CCOC(=O)C(O)(c1ccccc1)C1CCCCC1 (stereo not drawn) [Oxytrol],O
10,C[C@@H]1O[C@@H](O[C@H]2C[C@@H](O)[C@]3(CO)[C@H]4[C@H](O)C[C@]5(C)[C@@H](C6=CC(=O)OC6)CC[C@]5(O)[C@@H]4CC[C@]3(O)C2)[C@H](O)[C@H](O)[C@H]1O [Ouabain],B
11,O=c1c(-c2ccc(O)cc2)coc2c([C@@H]3O[C@H](CO)[C@@H](O)[C@H](O)[C@H]3O)c(O)ccc12 [puerarin],B
12,NC(=O)N1c2ccccc2CC(=O)c2ccccc21 [oxcarbazepine],O
13,Nc1ccc(O)c(C(=O)O)c1 [mesalamine],B
14,Cc1ccccc1C(OCCN(C)C)c1ccccc1 (stereo not drawn) [Orphenadrine],O
15,O=C(N[C@H]1CCS[C@H]2CCC[C@@H](C(=O)O)N2C1=O)[C@@H](S)Cc1ccccc1 [omapatrilat],O
